The values below come from US11117907B2, “Curcuminoid-inspired synthetic compounds as anti-tumor agents” (University of North Florida Board of Trustees, priority 2017, dated 2021).

Test [1] relates to RPMI8226. The test is described as follows: Cell viability assay to determine EC50 (CellTiter-Glo 2.0), RPMI8226. The test is classed as cell-based. Particulars: Homo sapiens, RPMI-8226; Table 7, run number 2; 72 h. As for the experimental part:
(§1) RPMI-8266 (Multiple myeloma cell line, MM) and PBCMs cells were seeded into 384-well culture plates at 2×10^3 cell/well in quadruplicate, and incubated at 5% CO2, 37° C. The culture media was replaced with compounds (ranges from 0-10,000 nM) and incubated for 72 h. Bortezomib was spiked in control. […] CellTiter-Glo® 2.0 reagent was added at equal volume to the cell culture medium present in each well and the plate was left to incubate at room temperature for 10 minutes to stabilize the luminescent signal.
Cell lines and PBCMs (peripheral blood mononuclear cells from healthy donors as non-cancer CONTROL) were seeded in quadruplicate (technical replicates). CellTiter-Glo® 2.0 reagent equal to the volume of cell culture medium present in each well was added and the plate was left to incubate at room temperature for 10 min to stabilize the luminescent signal. Luminescent signal/intensity from the 384-well plate was read on a plate reader. Cells/cell lines used: BCWM.1 (Waldenstrom macroglobulinemia cell line, WM); RPMI-8266 (Multiple myeloma cell line, MM); RS4; 11 (Acute lymphoblastic leukemia, ALL)* reported to be dependent on Bcl-2 protein.
On the technique in general: ATP-based viability assays read luminescence as a measure of living cells.

For test [2], the system named is PBMC. The test is described as follows: Cell viability assay (CellTiter-Glo 2.0), PBMC from healthy donors. Format: cell-based. To be noted: Homo sapiens, Table 7, run number 2, 72 h. As for the experimental part: Peripheral blood mononuclear cells (PBMCs) were collected from healthy, i.e. non-cancerous, donors (CONTROL).
as §1
Cell lines and PBCMs (peripheral blood mononuclear cells from healthy donors as non-cancer CONTROL) were seeded in quadruplicate (technical replicates). CellTiter-Glo® 2.0 reagent equal to the volume of cell culture medium present in each well was added and the plate was left to incubate at room temperature for 10 min to stabilize the luminescent signal. Luminescent signal/intensity from the 384-well plate was read on a plate reader. […]
Cell lines and PBCMs (peripheral blood mononuclear cells from healthy donors as non-cancer CONTROL) were seeded in quadruplicate (technical replicates). […] Luminescent signal/intensity from the 384-well plate was read on a plate reader. […]

Test [3] concerns RPMI8226. Particulars: control; typically; read-out: EC50 in RPMI8266, typical value; cited from earlier work.
Test [4] has as its system MM cell lines (MM1.S, KMS11, RPMI-8226). To be noted: cited from earlier work.
The test system of test [5] is PBMC. To be noted: comparison value; read-out: IC50 of PBMCs; cited from earlier work.

Molecules are shown by their SMILES. Like-named read-outs stand apart in the source and are kept apart here.

Broadly, the EC50 is the concentration at which the effect is half-maximal. For orientation: IC50 means the midpoint of a concentration-inhibition curve. Regarding `CC(C)C[C@H](NC(=O)[C@H](Cc1ccccc1)NC(=O)c1cnccn1)B(O)O` [Bortezomib], the EC50 in the test with RPMI8226 [1] was 10.6 nM; with PBMC [2], 60.5 nM; with RPMI8226 [3], 10 to 16 nM. In test [4] (MM cells versus PBMCs), the “in vitro tumor-specificity profile” value is given as 2-3 fold. Further, the IC50 in test [4] (comparison value, read-out: IC50 in MM cells) was roughly 2 nM; with PBMC [5], 4 to 6 nM.
